From PubChem BioAssay (NCI)
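Assay format: 96-well plates, 48-hour exposure. The concentration for 50% growth inhibition is given as GI50. TGI is the concentration that stops growth completely.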

Columns and labels:
Assay in all cases: NCI anticancer screen, dose series, 48 h
[1] = test system: DLD-1 colon
[2] = test system: DMS 273 small cell lung
[3] = test system: KM20L2 colon
[4] = test system: SNB-78 CNS
[5] = test system: M19-MEL melanoma
[6] = test system: DMS 114 small cell lung
[7] = test system: MDA-MB-231 breast
[8] = test system: MDA-N
[9] = test system: RXF-631 renal

With `CCOc1ccc(NC(=O)/C(=C/c2ccccc2)C(C)=O)cc1` the TGI [1] was 24 µM, the TGI [2] was 43.2 µM and the TGI [3] was 32.5 µM. For the same compound, the TGI [4] was 38.8 µM, the TGI [5] was 27.7 µM and the TGI [6] was 26.9 µM.

Compound `C#CCSc1nnnn1-c1ccc(Br)c(C)c1` has a GI50 [7] of 35.8 µM and a TGI [7] of over 100 µM.

`COc1ccccc1NS(=O)(=O)c1cc(C(C)(C)C)ccc1OCCOc1ccc(C(C)(C)C)cc1S(=O)(=O)Nc1ccccc1OC` showed a TGI [1] of over 100 µM, a TGI [2] of over 100 µM and a TGI [4] of over 100 µM. For the same compound, the TGI [5] was over 100 µM and the TGI [6] was over 100 µM.

In the case of `CCOC(=O)C1=C(O)CSC1=Nc1ccc(N=C2SCC(O)=C2C(=O)OCC)cc1`, the TGI [1] was 50.4 µM, the TGI [2] was 42.8 µM and the TGI [3] was over 100 µM. The TGI [4] was over 100 µM, the TGI [5] was 61.2 µM and the TGI [6] was 59.6 µM.

With `COc1ccc(C2=NN(c3ccc(S(N)(=O)=O)cc3)C(c3ccc(Cl)cc3)C2)c(O)c1` (stereo not drawn) the GI50 [7] was 9.89 µM and the TGI [7] was 27.4 µM.

`O=C(Nc1ccc(Cl)cc1)C(=O)C1=C(O)c2ccccc2OC1` gave a TGI [8] of over 100 µM and a TGI [7] of over 100 µM.

In the case of `Cc1nc(N=C(N)N)nc2ccc3ccccc3c12`, the GI50 [7] was 1.25 µM and the TGI [7] was 3.2 µM.

`COc1ccc(C(=O)Nc2ccccc2C#N)cc1` was tested, and the TGI [1] was over 100 µM, the TGI [2] was over 100 µM and the TGI [3] was over 100 µM. It also gave a TGI [4] of over 100 µM and a TGI [5] of over 100 µM.

`C[C@@H](Oc1cc(-n2cnc3ccc(OCC4CCN(C)CC4)cc32)sc1C(N)=O)c1ccccc1C(F)(F)F` was tested, and the GI50 [7] was 0.144 µM and the TGI [7] was 1.98 µM.

For `Fc1cccc(C=NC23CC4CC(CC(C4)C2)C3)c1`, the TGI [1] was over 100 µM, the TGI [2] was over 100 µM and the TGI [3] was over 100 µM. For the same compound, the TGI [4] was over 100 µM, the TGI [5] was over 100 µM and the TGI [6] was over 100 µM.

`CC(=O)[CH-]C(=O)c1ccccc1.CC(=O)[CH-]C(=O)c1ccccc1.[O-]Cc1cccs1.[O-]Cc1cccs1.[Ti+4]` was tested, and the GI50 [3] was 19.8 µM, the TGI [3] was over 100 µM and the GI50 [5] was 82 µM. The TGI [5] was over 100 µM.

`CC1OC(OC2C(OC3CCC4(C)C(CCC5(C)C4CC=C4C6CC(C)(C)CCC6(CO)C(O)CC45C)C3(C)C)OC(C(=O)O)C(OC3OC(COC4OC(CO)C(O)C(O)C4O)C(O)C(O)C3O)C2O)C(O)C(O)C1O` (stereo not drawn) gave a GI50 [7] of 10.8 µM and a TGI [7] of 21.8 µM.

`Nc1ccc(C(=O)O)c2[nH]c3ccccc3c(=O)c12` gave a TGI [1] of over 100 µM, a TGI [2] of over 100 µM and a TGI [3] of over 100 µM. It also gave a TGI [4] of over 100 µM, a TGI [5] of over 100 µM and a TGI [6] of over 100 µM.

For `COc1cc2nc(-c3ccc(Cl)cc3)cc(OCCCN3CCC(O)CC3)c2cc1OC`, the GI50 [7] was 0.665 µM and the TGI [7] was 3.52 µM.

For `CN(C)c1ccc(N=C(C#N)c2nc(N)nc(N3CCOCC3)n2)cc1`, the GI50 [7] was 20.7 µM and the TGI [7] was 50.5 µM.

For `CCN1CCC(O)(c2ccccc2)C(C(=O)c2ccccc2)C1` (stereo not drawn), the TGI [1] was 37 µM, the TGI [2] was over 100 µM and the TGI [3] was over 60.7 µM. The TGI [4] was 54.1 µM, the TGI [5] was over 63.1 µM and the TGI [6] was over 67.4 µM.

For `C=C(CNCCc1ccc(O)cc1)[C@@H]1CC[C@]2(CO)CC[C@]3(C)[C@H](CC[C@@H]4[C@@]5(C)CCC(NCCO)C(C)(C)[C@@H]5CC[C@]43C)[C@@H]12` (stereo partly drawn), the GI50 [7] was 1.33 µM and the TGI [7] was 2.74 µM.

Work on `Nc1cc2c3c(cccc3c1)C(=O)N(CCN1CCN(CCN3C(=O)c4cccc5cc(N)cc(c45)C3=O)CC1)C2=O` yielded a TGI [2] of over 100 µM, a TGI [3] of over 100 µM and a TGI [9] of over 100 µM. For the same compound, the TGI [5] was over 100 µM and the TGI [6] was over 100 µM.

In the case of `CC1(C)OCC(C2OC(On3nnc4ccc(Cl)cc43)C3OC(C)(C)OC23)O1` (stereo not drawn), the TGI [8] was over 100 µM and the TGI [7] was over 100 µM.

Work on `CCOC(=O)C12CN(C34CC5CC(CC(C5)C3)C4)CC(C(=O)OCC)(C1=O)C(c1ccccc1)OC2c1ccccc1` (stereo not drawn) yielded a TGI [1] of over 100 µM, a TGI [2] of over 100 µM and a TGI [3] of over 100 µM. It also gave a TGI [4] of over 100 µM, a TGI [5] of over 100 µM and a TGI [6] of over 100 µM.

`COC(=O)C1(C)CCc2c(ccc3ccccc23)C1=O` (stereo not drawn) was tested, and the TGI [8] was 76.5 µM and the TGI [7] was over 100 µM.

`Cc1cc(C)c2c(c1C)CN1CN2Cc2c(C)c(C)cc(C)c21` showed a TGI [1] of over 100 µM, a TGI [2] of over 100 µM and a TGI [4] of over 100 µM. For the same compound, the TGI [5] was over 100 µM and the TGI [6] was 44.1 µM.

For `COc1ccc2c(c1)C(=O)/C(=C/c1ccc(OCC(=O)c3ccc(Cl)cc3)cc1)O2`, the GI50 [7] was 17 µM and the TGI [7] was 89.7 µM.

In the case of `O=C1c2cccnc2-c2nc(-c3ccccc3)cc3c2c1nc1ccccc13`, the GI50 [8] was 1.74 µM, the TGI [8] was 3.46 µM and the GI50 [7] was 4.33 µM. The TGI [7] was over 100 µM.

In the case of `CCOC(=O)/C(=C/c1c(-c2ccccc2)[nH]c2ccccc12)C(=O)c1ccc(Cl)cc1`, the GI50 [7] was 4.74 µM and the TGI [7] was over 100 µM.

In the case of `CC/C(=C(/CC)c1ccc(OP(=O)([O-])[O-])cc1)c1ccc(OP(=O)([O-])[O-])cc1.N.N.N.N.[Pt+4].[Pt+4]`, the GI50 [1] was 9.51 µM, the TGI [1] was over 100 µM and the GI50 [2] was 2.17 µM. For the same compound, the TGI [2] was 18.9 µM, the GI50 [3] was 26.1 µM and the TGI [3] was over 100 µM. For the same compound, the GI50 [4] was 2.3 µM and the TGI [4] was 6.81 µM.

`COC(=O)[C@@]12C3=NO[C@]1(C(=O)OC)C(O[Si](C)(C)C(C)(C)C)C1OC(C)(C)OC1[C@@H]2[C@@H](OCc1ccccc1)CC3` (stereo partly drawn) showed a TGI [1] of over 100 µM, a TGI [2] of over 100 µM and a TGI [3] of over 100 µM. For the same compound, the TGI [5] was over 100 µM and the TGI [6] was over 100 µM.

With `COc1cc(C2c3cc4c(cc3[C@@H](OCCN)[C@H]3COC(=O)C23)OCO4)cc(OC)c1O` (stereo partly drawn) the TGI [1] was 6.76 µM, the TGI [3] was 2.79 µM and the TGI [4] was over 58.9 µM. It also gave a TGI [5] of 2.14 µM and a TGI [6] of 0.162 µM.

`C/C(=N\NC(=S)Nc1ccccc1)c1ccccn1` gave a GI50 [7] of 0.0309 µM and a TGI [7] of 2.61 µM.

`CCN(CC)c1ccc(/C=C/C2=[N+](C)c3ccccc3C2(C)C)cc1` showed a GI50 [7] of 0.701 µM and a TGI [7] of 6.48 µM.

Work on `NCCCNCCCNc1nc2ccccc2c2[nH]c3ccccc3c12` yielded a GI50 [7] of 0.142 µM and a TGI [7] of 1.56 µM.

With `COC(=O)Oc1nn(C(=O)OC)c(=O)c2ccccc12` (tested in a mixture with another compound) the TGI [8] was over 100 µM and the TGI [7] was over 100 µM.

With `CCOC(=O)c1c(-c2ccccc2)[nH]c2ccccc2c1=O` the TGI [8] was over 100 µM.

In the case of `c1ccc(COc2ccc(Nc3ncnc4ccc(-c5ccco5)cc34)cc2)cc1`, the GI50 [7] was 5.49 µM and the TGI [7] was 13.7 µM.

Work on `Cn1cc(-c2nonc2-c2cn(C)c3ccc(Br)cc23)c2ccccc21` yielded a GI50 [7] of 3.67 µM and a TGI [7] of over 100 µM.

With `CC1=C(C(=O)Nc2cc(F)c(F)cc2F)C(c2cccc([N+](=O)[O-])c2)C(C(=O)Nc2ccccc2C(F)(F)F)=C(C)N1` (stereo not drawn) the TGI [1] was 94.7 µM, the TGI [3] was 78.4 µM and the TGI [9] was 49.3 µM. The TGI [4] was 59.2 µM, the TGI [5] was 91.5 µM and the TGI [6] was 57 µM.

For `Cc1ccc(C)c(NC(=O)CCC(=O)CC(=O)C(C)(C)C)c1`, the TGI [1] was over 100 µM, the TGI [2] was over 100 µM and the TGI [3] was over 100 µM. The TGI [4] was over 100 µM, the TGI [5] was over 100 µM and the TGI [6] was over 100 µM.
